{
  "source": "patent US11512097B2",
  "about": "“Heterocyclic compounds as Delta-5 desaturase inhibitors and methods of use” (Amgen Inc., priority 2019, dated 2022)",
  "key": {"Delta-5-Desaturase (D5D)": {"biological_target": "T1, Delta-5-Desaturase (D5D) (Mus musculus, UniProt Q920L1)", "T1 construct": "tissue Jackson Laboratories strain #3800050; host or cells: whole animal (DIO mice)", "T1 sequence (Q920L1 1-447)": "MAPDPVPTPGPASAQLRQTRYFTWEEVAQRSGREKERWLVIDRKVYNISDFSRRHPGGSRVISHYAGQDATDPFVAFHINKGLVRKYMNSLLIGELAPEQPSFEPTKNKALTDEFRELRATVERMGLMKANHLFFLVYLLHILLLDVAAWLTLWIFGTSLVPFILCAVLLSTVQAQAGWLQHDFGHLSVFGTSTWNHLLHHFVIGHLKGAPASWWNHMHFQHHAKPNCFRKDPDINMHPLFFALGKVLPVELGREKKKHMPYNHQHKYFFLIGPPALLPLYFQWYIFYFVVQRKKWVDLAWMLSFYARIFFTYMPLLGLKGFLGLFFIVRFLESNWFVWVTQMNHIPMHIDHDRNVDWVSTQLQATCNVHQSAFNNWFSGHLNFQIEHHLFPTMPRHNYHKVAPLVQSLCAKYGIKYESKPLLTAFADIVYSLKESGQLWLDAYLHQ", "experiment": "In vivo measurement of Delta-5-Desaturase inhibitory activity (plasma AA/DGLA ratio in DIO mice)", "conditions": "single oral dose 30 mg/kg, relative to vehicle group", "description": "In Vivo Measurement of Delta-5-Desaturase Inhibitory Activity\nDiet-induced obese (DIO; Jackson Laboratories strain #[…]) mice were used to screen for pharmacodynamic (PD) activity of test compounds. Generally, 14 to 24 week old DIO mice, were administered test compounds formulated in the vehicle of 2% hydroxypropyl methylcellulose (HPMC) and 1% Tween80. Animals were dosed on body weight by oral gavage with a single dose (30 mg/kg) for PD studies. Necropsy included plasma collection for PUFA analysis. 10 μl of plasma or standards diluted in surrogate matrix (65 g/l bovine serum albumin in Dulbecco's phosphate-buffered saline) were mixed with 10 μl of an internal standard (100 μM alpha-linolenic acid-d14 (ALA-d14, Cayman Chemical)) in a 96 well plate. 100 μl of 2N NAOH was added to the mixture for subsequent saponification at 65° C. for 1 hour. The mixture was then acidified with 50 μl of formic acid followed by two consecutive hexane extractions. Hexane (500 μl) was added and the mixture thoroughly mixed by vortexing, followed by centrifugation at 4,000 rpm for 15 min. The hexane phase was transferred to a new 1 ml 96 well plate and the remaining aqueous layer was extracted with hexane. The organic extracts were combined and the solvent was removed by placing the plate under nitrogen gas at 55° C. 250 μl of 90% methanol was added to the plate followed by vortexing for 2 minutes. 200 μl of the samples were transferred to a new 96 well polypropylene plate. The samples were analyzed on a LC-MS/MS for the following PUFAs: arachidonic acid (AA), dihomo-gamma-linolenic acid (DGLA), with ALA-d14 as the internal standard. Description of the LC-MS/MS method: 5 μl of sample was injected onto a Poroshell 120 EC-C18 3.0×50 mm, 1.9 μm id column. […] The PUFA peak areas were quantified by using the SCIEX Analyst software. […] The relative decrease of the AA/DGLA ratio of the test compound administered group relative to the vehicle administered group was calculated and used as an index for the degree of D5D inhibition. […]"}, "[1]": {"test_system": "Diet-Induced Obese (DIO) mice", "experiment": "Assessment of D5D inhibitor in Diet-Induced Obese (DIO) mice", "assay_type": "in vivo, Male C57BL/6J DIO mice", "conditions": "for Fat mass / Lean mass: day 78, EchoMRI; for Blood glucose: day 81, non-fasted; for AA / DGLA: day 81, non-fasted plasma; for Body weight / Liver weights / epididymal WAT / inguinal WAT / mesenteric WAT: day 84; for Adiponectin / Cholesterol / Insulin / LDL cholesterol / Leptin / Resisten / Triglycerides: day 84, 4-hour fasted plasma", "excerpt": "Assessment of D5D Inhibitor in Diet-Induced Obese (DIO) Mice\nMale C57BL/6J DIO mice (Jackson Laboratories, Stock No.: 380050) were fed high-fat diet (Research Diets, Inc., D12492) for 12 weeks. All animals were given free access to water and chow. Animals were acclimated to per os dosing for 3 days prior to the start of the experiment. Animals were randomized on body weight, fat mass, lean mass, and blood glucose concentrations in to groups of 8 to 10 animals per group. Animals were twice daily dosed per os with either: vehicle (2% hydroxypropyl methylcellulose and 1% tween 80 in water), Example 2 at 10 mg/kg, or 30 mg/kg (formulated in 2% hydroxypropyl methylcellulose and 1% tween 80 in water), or Example 45 at 3 mg/kg, or 10 mg/kg (formulated in 2% hydroxypropyl methylcellulose and 1% tween 80 in water). Three-day average (Example 2) or daily average (Example 45) food consumption was measured at the indicated times as shown in Table 17 and Table 18. Body composition (EchoMRI) was determined on day 78 for Example 2 and day 22 for Example 45. For Example 2, a non-fasted blood collection was performed on day 81; blood glucose was immediately measured, and plasma samples created from the remaining blood and used to measure DGLA and AA concentrations. On day 84, a 4-hour fasted blood collection was performed, and plasma samples were created from the blood and used to measure cholesterol, triglycerides, low-density lipoprotein (LDL) cholesterol, insulin, and adipokine (adiponectin, leptin, and resistin) levels. For Example 45, 4 hour fasted blood samples were collected on day 25 and blood glucose was measured immediately and the plasma samples created from the remaining blood were used to measure cholesterol, triglycerides, LDL cholesterol, insulin, DGLA and AA concentration. At the end of the studies, liver, epididymal white adipose tissue, inguinal white adipose tissue, mesenteric (only Example 2) white adipose tissue weights were recorded. Data was analyzed using GraphPad Prism v 7.04.\nThe D5D inhibitor dose-dependently led to weight loss over the course of the experiment (Table 17 and Table 18) compared to vehicle controls. Consistently fat mass was reduced, along with lower inguinal, epididymal and mesenteric white adipose tissue (WAT) weights at necropsy. Blood glucose and plasma insulin levels were both reduced by the D5D inhibitor, along with reductions in plasma cholesterol and triglycerides. Evidence of target engagement was established by observing increases in plasma DGLA and decreases in plasma AA."}, "[2]": {"conditions": "Example 2 10 mg/kg twice daily per os"}, "[3]": {"conditions": "Example 2 30 mg/kg twice daily per os"}},
  "data": [
    {"molecule": "Cc1nn2c(=O)c(-c3cnn(CC(F)(F)C(F)(F)F)c3)c(C(F)(F)F)nc2s1", "note": "[Example 2, 2-methyl-6-[1-(2,2,3,3,3-pentafluoropropyl)-1H-pyrazol-4-yl]-7-(trifluoromethyl)-5H-[1,3,4]thiadiazolo[3,2-a]pyrimidin-5-one]", "values": [
      {"measurement": "Average % D5D Inhibition expressed as Plasma Endogenous AA/DGLA Ratio", "setting": "Delta-5-Desaturase (D5D)", "value": 66, "unit": "%"},
      {"measurement": "Fat mass", "setting": "[1]; [2]", "value": "11.4 ± 0.6", "unit": "g"},
      {"measurement": "Lean mass", "setting": "[1]; [2]", "value": "26.4 ± 0.6", "unit": "g"},
      {"measurement": "Blood glucose", "setting": "[1]; [2]", "value": "165.3 ± 4.6", "unit": "mg/dL"},
      {"measurement": "AA", "setting": "[1]; [2]", "value": "14.5 ± 0.9", "unit": "µg/mL"},
      {"measurement": "DGLA", "setting": "[1]; [2]", "value": 167.8, "unit": "µg/mL"},
      {"measurement": "Body weight", "setting": "[1]; [2]", "value": "38.1 ± 1.0", "unit": "g"},
      {"measurement": "Liver weights", "setting": "[1]; [2]", "value": "3.0 ± 0.2", "unit": "g"},
      {"measurement": "epididymal WAT", "setting": "[1]; [2]", "value": "1.2 ± 0.1", "unit": "g"},
      {"measurement": "inguinal WAT", "setting": "[1]; [2]", "value": "1.2 ± 0.1", "unit": "g"},
      {"measurement": "mesenteric WAT", "setting": "[1]; [2]", "value": "0.4 ± 0.0", "unit": "g"},
      {"measurement": "Adiponectin", "setting": "[1]; [2]", "value": "48.3 ± 17.7", "unit": "ng/mL"},
      {"measurement": "Cholesterol", "setting": "[1]; [2]", "value": "224.5 ± 7.3", "unit": "mg/dL"},
      {"measurement": "Insulin", "setting": "[1]; [2]", "value": "1.8 ± 0.3", "unit": "ng/mL"},
      {"measurement": "LDL cholesterol", "setting": "[1]; [2]", "value": "85.9 ± 3.8", "unit": "mg/dL"},
      {"measurement": "Leptin", "setting": "[1]; [2]", "value": "10.7 ± 3.6", "unit": "ng/mL"},
      {"measurement": "Resisten", "setting": "[1]; [2]", "value": "0.9 ± 0.2", "unit": "ng/mL"},
      {"measurement": "Triglycerides", "setting": "[1]; [2]", "value": "14.3 ± 1.2", "unit": "mg/dL"},
      {"measurement": "Food consumption", "setting": "[1]; Example 2 10 mg/kg twice daily per os, days 0-2, three-day average", "value": "2.5 ± 0.2", "unit": "g/day"},
      {"measurement": "Food consumption", "setting": "[1]; Example 2 10 mg/kg twice daily per os, days 70-72, three-day average", "value": "2.5 ± 0.1", "unit": "g/day"},
      {"measurement": "Fat mass", "setting": "[1]; [3]", "value": "5.7 ± 0.6", "unit": "g"},
      {"measurement": "Lean mass", "setting": "[1]; [3]", "value": "26.1 ± 0.4", "unit": "g"},
      {"measurement": "Blood glucose", "setting": "[1]; [3]", "value": 152.1, "unit": "mg/dL"},
      {"measurement": "AA", "setting": "[1]; [3]", "value": "10.7 ± 0.6", "unit": "µg/mL"},
      {"measurement": "DGLA", "setting": "[1]; [3]", "value": 137.7, "unit": "µg/mL"},
      {"measurement": "Body weight", "setting": "[1]; [3]", "value": "32.3 ± 0.9", "unit": "g"},
      {"measurement": "Liver weights", "setting": "[1]; [3]", "value": "3.2 ± 0.1", "unit": "g"},
      {"measurement": "epididymal WAT", "setting": "[1]; [3]", "value": "0.75 ± 0.1", "unit": "g"},
      {"measurement": "inguinal WAT", "setting": "[1]; [3]", "value": "0.5 ± 0.1", "unit": "g"},
      {"measurement": "mesenteric WAT", "setting": "[1]; [3]", "value": "0.2 ± 0.0", "unit": "g"},
      {"measurement": "Adiponectin", "setting": "[1]; [3]", "value": "51.0 ± 24.4", "unit": "ng/mL"},
      {"measurement": "Cholesterol", "setting": "[1]; [3]", "value": 207.5, "unit": "mg/dL"},
      {"measurement": "Insulin", "setting": "[1]; [3]", "value": "1.4 ± 0.2", "unit": "ng/mL"},
      {"measurement": "LDL cholesterol", "setting": "[1]; [3]", "value": "80.6 ± 3.9", "unit": "mg/dL"},
      {"measurement": "Leptin", "setting": "[1]; [3]", "value": "3.2 ± 1.6", "unit": "ng/mL"},
      {"measurement": "Resisten", "setting": "[1]; [3]", "value": "0.7 ± 0.2", "unit": "ng/mL"},
      {"measurement": "Triglycerides", "setting": "[1]; [3]", "value": "12.8 ± 1.0", "unit": "mg/dL"},
      {"measurement": "Food consumption", "setting": "[1]; Example 2 30 mg/kg twice daily per os, days 0-2, three-day average", "value": "2.5 ± 0.2", "unit": "g/day"},
      {"measurement": "Food consumption", "setting": "[1]; Example 2 30 mg/kg twice daily per os, days 70-72, three-day average", "value": "2.7 ± 0.1", "unit": "g/day"}
    ]}
  ]
}
